Active and inactive are the calls of the source. The rule behind the calls is not given here.
Experiments:
Type in all cases: cell-based
[1] = system: PBMC; test: Cytotoxicity against human PBMC cells up to 200 uM after 48 hrs by CellTiter 96 AQueous one solution cell proliferation assay
[2] = target: T1, IL15-IL15 receptor (Homo sapiens) (UniProt P40933+Q13261); test: Inhibition of IL-15 (unknown origin)/IL-15Ralpha interaction in human PBMC cells assessed as reduction of IL-17 synthesis preincubated for 30 mins followed by IL-15 addition measured after 48 hrs by ELISA
[3] = target: T1, IL15-IL15 receptor (Homo sapiens); test: Inhibition of IL-15 (unknown origin)/IL-15Ralpha interaction in human PBMC cells assessed as reduction of TNF-alpha synthesis preincubated for 30 mins followed by IL-15 addition measured after 48 hrs by ELISA

T1 sequence (P40933 49-162 limits assumed): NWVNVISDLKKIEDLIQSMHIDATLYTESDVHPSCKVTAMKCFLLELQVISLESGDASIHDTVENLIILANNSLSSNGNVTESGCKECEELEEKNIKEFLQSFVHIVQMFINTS
T1 sequence (Q13261 31-267 partner limits assumed): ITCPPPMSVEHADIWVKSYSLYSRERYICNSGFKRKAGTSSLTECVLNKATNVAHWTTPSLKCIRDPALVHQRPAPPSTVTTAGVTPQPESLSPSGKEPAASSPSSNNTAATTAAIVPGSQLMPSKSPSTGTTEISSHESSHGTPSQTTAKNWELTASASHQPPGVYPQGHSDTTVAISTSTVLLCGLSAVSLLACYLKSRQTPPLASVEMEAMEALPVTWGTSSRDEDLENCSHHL

| inhibition [2] | TNF-alpha synthesis inhibition (active/not active) [3] | Structure (SMILES) | Activity [1] |
| --- | --- | --- | --- |
| Active | Active | COC(=O)c1ccc(O)c(C)c1O | Non-Toxic |
| inactive | inactive | O=C(O)CCC(=O)NCc1ccc(C(=O)O)cc1 | Non-Toxic |
| inactive | inactive | CCC(=O)Nc1ccc(Cc2ccc(NC(=O)CC)c(C(=O)O)c2)cc1C(=O)O | Non-Toxic |
| inactive | inactive | O=C(O)c1ccc(CSc2nnnn2C2CCCCC2)cc1 | Non-Toxic |
| Active | Active | Cc1nnc(SCC2=C(C(=O)O)N3C(=O)[C@@H](NC(=O)Cn4cnnn4)[C@H]3SC2)s1 [CEFAZOLIN] | Non-Toxic |
| – | – | NCCC(=O)N[C@@H](Cc1cnc[nH]1)C(=O)O [CARNOSINE] | Non-Toxic |
| Active | Active | O=C(O)c1ccc(CNC(=O)C2CCCCC2C(=O)O)cc1 (configuration not stated) | Non-Toxic |
| inactive | inactive | O=C(O)Cc1ccc(NC(=O)C2CC=CCC2C(=O)O)cc1 (configuration not stated) | Non-Toxic |
| Active | Active | O=C(O)c1ccc(CNC(=O)C2C3CCC(C3)C2C(=O)O)cc1 (configuration not stated) | Non-Toxic |
| Active | Active | NCCC(=O)NCCc1c[nH]cn1 [CARCININE] | Non-Toxic |
| Active | Active | C/C(C/C(C)=N/N=C(N)N)=N\N=C(N)N | Non-Toxic |
| inactive | inactive | COc1ccc(-n2nnnc2S(=O)(=O)Cc2ccc(C(=O)O)cc2)cc1 | Non-Toxic |
| inactive | inactive | NCCC(=O)N[C@@H](Cc1c[nH]cn1)C(=O)O | – |
| Active | Active | NC(N)=NC(=O)CNCC(=O)N=C(N)N | Non-Toxic |
| inactive | inactive | COc1ccc(S(=O)(=O)Nc2cccc(C(=O)O)c2)cc1C(=O)O | Non-Toxic |
| inactive | inactive | O=C(O)c1ccc(CNC(=O)C2CC=CCC2C(=O)O)cc1 (configuration not stated) | Non-Toxic |
| Active | Active | O=C(O)CCC(=O)Nc1cc(NC(=O)CCC(=O)O)cc(C(=O)O)c1 | Non-Toxic |
| Active | Active | NC(CCCCCCC(N)C(=O)O)C(=O)O (configuration not stated) | Non-Toxic |
| Active | Active | O=C(O)c1ccc(CSc2nnnn2-c2ccc(F)cc2)cc1 | Non-Toxic |
| Active | Active | COC(=O)CCC(=O)NCc1ccc(C(=O)OC)cc1 | Non-Toxic |

— ChEMBL document CHEMBL4138114, “Pharmacophore guided discovery of small-molecule interleukin 15 inhibitors” (Eur J Med Chem, 2017)
